For orientation: solubility means the dissolved amount per volume that the medium holds.

Experimental findings from patent US11793803B2, “Particle and pharmaceutical composition comprising an insoluble camptothecin compound with double core-shell structure and method for manufacturing the same” (SN BIOSCIENCE INC., priority 2017, dated 2023) are described below.

≈ marks a conversion by molar mass, not a printed value.

A short description of this data set: Solubility in different solvents (supersaturated solution, filtrate analysed by HPLC). To be noted: for solubility at 30 min: thermodynamic from solid.

Description: A supersaturated solution was prepared by adding 20 mg of the hydrophobic camptothecin compound (camptothecin or SN-38) to 5 ml of ethanol, acetonitrile, acetone, ethyl acetate, chloroform dimethyl sulfoxide, or distilled water, followed by ultrasonic treatment for 30 minutes. The prepared supersaturated solution was filtered through a 0.45-μm filter, and a filtrate was properly diluted, followed by HPLC analysis.
The prepared supersaturated solution was filtered through a 0.45-μm filter, and a filtrate was properly diluted, followed by HPLC analysis.
HPLC (Agilent 1200 Series, USA) conditions were as follows. The column was CapcellPak C8 (5 m, 4.6 mm×25 cm, Shiseido); the mobile phase was a mixed solvent of methanol:acetonitrile:buffer (2.8 g/L sodium dihydrogenphosphate, 1.8 g/L 1-octanesulfonate aqueous solution)=17:24:59 (v/v); the flow rate was 1.5 mL/min; the measurement wavelength was UV 255 nm; and the sample injection amount was 15 μL.

Consider `CC[C@@]1(O)C(=O)OCc2c1cc1n(c2=O)Cc2cc3ccccc3nc2-1` [Camptothecin, camptothecin], for which the solubility at 30 min (acetonitrile, organic solvent or mixture) is 101 µg/mL (≈ 290 µM); the solubility at 30 min (chloroform, organic solvent or mixture) was determined as 2 µg/mL (≈ 5.74 µM); the solubility at 30 min (dimethyl sulfoxide, organic solvent or mixture) was 3290 µg/mL (≈ 9450 µM); the solubility at 30 min (distilled water, water) came to 9 µg/mL (≈ 25.8 µM); the solubility at 30 min (ethanol, organic solvent or mixture) was 149 µg/mL (≈ 428 µM); the solubility at 30 min (ethyl acetate, organic solvent or mixture) was determined as 134 µg/mL (≈ 385 µM).
With `CCc1c2c(nc3ccc(O)cc13)-c1cc3c(c(=O)n1C2)COC(=O)[C@]3(O)CC` [SN-38, 7-ethyl-10-hydroxy-camptothecin], the “Solubility of hydrophobic camptothecin-based compound” value by setting is: (Acetonitrile) 402 µg/mL; (Chloroform) 9 µg/mL; (Dimethyl sulfoxide) 2263 µg/mL; (Distilled water) under 1 µg/mL; (Ethanol) 779 µg/mL; (Ethyl acetate) 78 µg/mL.
